# Assay results as given in patent publication US10196393B2, “JAK inhibitors containing a 4-membered heterocyclic amide” (THERAVANCE BIOPHARMA R&D IP, LLC, priority 2017, dated 2019).
# pIC50: −log10 of the molar value. Like-named read-outs stand apart in the source and are kept apart here.
# Key:
# [1] = tested on: IL-5 mediated eosinophil survival in human eosinophils; assay: IL-5 mediated eosinophil survival assay; format: cell-based; conditions: 72 h, read-out: pIC50, IL-5 mediated eosinophil survival (converted)
# Procedure: Assay 6: IL-5 Mediated Eosinophil Survival Assay
# The potency of the test compound for IL-5 mediated eosinophil survival was measured in human eosinophils isolated from human whole blood (AllCells). Because IL-5 signals through JAK, this assay provides a measure of JAK cellular potency.
# Human eosinophils were isolated from fresh human whole blood (AllCells) of healthy donors. Blood was mixed with 4.5% Dextran (Sigma-Aldrich) in a 0.9% sodium chloride solution (Sigma-Aldrich). Red blood cells were left to sediment for 35 minutes. The leukocyte rich upper layer was removed and layered over Ficoll-Paque (GE Healthcare) and centrifuged at 600 g for 30 minutes. The plasma and mononuclear cell layers were removed before the granulocyte layer was lysed with water to remove any contaminating red blood cells. […] Purity was analyzed using a LSRII flow cytometer (BD Biosciences). […]
# After cytokine stimulation, cells were centrifuged at 300 g for 5 min and washed twice with cold DPBS (Life Technologies). To access viability and apoptosis, cells were incubated with Propidium Iodide (Thermo Fisher Scientific) and APC Annexin V (BD Biosciences) and analyzed using a LSRII flow cytometer (BD Biosciences). IC50 values were determined from analysis of the viability curves of percent cell viability vs compound concentration. Data are expressed as pIC50 (negative decadic logarithm IC50) values.
# [2] = tested on: IL-13 induced STAT6 phosphorylation in BEAS-2B human lung epithelial cells; assay: Cellular JAKI potency assay (AlphaScreen), BEAS-2B; format: cell-based; conditions: Homo sapiens, BEAS-2B cells
# Procedure: Assay 2: Cellular JAKI Potency Assay
# The AlphaScreen JAKI cellular potency assay was carried out by measuring interleukin-13 (IL-13, R&D Systems) induced STAT6 phosphorylation in BEAS-2B human lung epithelial cells (ATCC). The anti-STAT6 antibody (Cell Signaling Technologies) was conjugated to AlphaScreen acceptor beads (Perkin Elmer), while the anti-pSTAT6 (pTyr641) antibody (Cell Signaling Technologies) was biotinylated using EZ-Link Sulfo-NHS-Biotin (Thermo Scientific).
# BEAS-2B cells were grown at 37° C. in a 5% CO2 humidified incubator in 50% DMEM/50% F-12 medium (Life Technologies) supplemented with 10% FBS (Hyclone), 100 U/mL penicillin, 100 μg/mL streptomycin (Life Technologies), and 2 mM GlutaMAX (Life Technologies). On day 1 of the assay, cells were seeded at a 7,500 cells/well density in white poly-D-lysine-coated 384-well plates (Corning) with 25 μL medium, and were allowed to adhere overnight in the incubator. On day 2 of the assay, the medium was removed and replaced with 12 μL of assay buffer (Hank's Balanced Salt Solution/HBSS, 25 mM HEPES, and 1 mg/ml bovine serum albumin/BSA) containing dose-responses of test compounds. Compounds were serially diluted in DMSO and then diluted another 1000-fold in media to bring the final DMSO concentration to 0.1%. Cells were incubated with test compounds at 37° C. for 1 h, and followed by the addition of 12 μl of pre-warmed IL-13 (80 ng/mL in assay buffer) for stimulation. After incubating at 37° C. for 30 min, the assay buffer (containing compound and IL-13) was removed, and 10 μL of cell lysis buffer (25 mM HEPES, 0.1% SDS, 1% NP-40, 5 mM MgCl2, 1.3 mM EDTA, 1 mM EGTA, and supplement with Complete Ultra mini protease inhibitors and PhosSTOP from Roche Diagnostics). The plates were shaken at ambient temperature for 30 min before the addition of detection reagents. A mixture of biotin-anti-pSTAT6 and anti-STAT6 conjugated acceptor beads was added first and incubated at ambient temperature for 2 h, followed by the addition of streptavidin conjugated donor beads (Perkin Elmer). After a minimum of 2 h incubation, the assay plates were read on the EnVision plate reader. AlphaScreen luminescence signals were recorded and utilized to calculate the percent inhibition values based on DMSO and background controls.
# For dose-response analysis, percent inhibition data were plotted vs. compound concentrations, and IC50 values were determined from a 4-parameter robust fit model with the Prism software. Results may also be expressed as the negative logarithm of the IC50 value, pIC50.
# Test compounds having a lower IC50 value or higher pIC50 value in this assay show greater inhibition of IL-13 induced STAT6 phosphorylation.
smiles,measurement,setting,value
"CCc1cc(O)c(F)cc1-c1ccc2c(-c3nc4c([nH]3)CN(C(C)C)[C@H](C(=O)N3CC(N(C)C)C3)C4)n[nH]c2c1 [Example 2, (S)-(3-(dimethylamino)azetidin-1-yl)(2-(6-(2-ethyl-5-fluoro-4-hydroxyphenyl)-1H-indazol-3-yl)-5-isopropyl-4,5,6,7-tetrahydro-3H-imidazo[4,5-c]pyridin-6-yl)methanone]",IC50,"[1]; in the presence of 10 pg/ml IL-5, 72 hours",25.1 nM
same,IC50,"[1]; in the presence of 1 ng/ml IL-5, 72 hours",631 nM
same,pIC50,[2],8.39
